For three compounds, EC50 results are on record in patent US10947289B2, “Glyco-modified atrial natriuretic peptide” (priority 2013, dated 2021).

The target of the experiment is T1, human GC-A (Homo sapiens, UniProt P16066).
T1 construct: expressed in transfected cells; host or cells: CHO cells
T1 sequence (P16066 33-1061): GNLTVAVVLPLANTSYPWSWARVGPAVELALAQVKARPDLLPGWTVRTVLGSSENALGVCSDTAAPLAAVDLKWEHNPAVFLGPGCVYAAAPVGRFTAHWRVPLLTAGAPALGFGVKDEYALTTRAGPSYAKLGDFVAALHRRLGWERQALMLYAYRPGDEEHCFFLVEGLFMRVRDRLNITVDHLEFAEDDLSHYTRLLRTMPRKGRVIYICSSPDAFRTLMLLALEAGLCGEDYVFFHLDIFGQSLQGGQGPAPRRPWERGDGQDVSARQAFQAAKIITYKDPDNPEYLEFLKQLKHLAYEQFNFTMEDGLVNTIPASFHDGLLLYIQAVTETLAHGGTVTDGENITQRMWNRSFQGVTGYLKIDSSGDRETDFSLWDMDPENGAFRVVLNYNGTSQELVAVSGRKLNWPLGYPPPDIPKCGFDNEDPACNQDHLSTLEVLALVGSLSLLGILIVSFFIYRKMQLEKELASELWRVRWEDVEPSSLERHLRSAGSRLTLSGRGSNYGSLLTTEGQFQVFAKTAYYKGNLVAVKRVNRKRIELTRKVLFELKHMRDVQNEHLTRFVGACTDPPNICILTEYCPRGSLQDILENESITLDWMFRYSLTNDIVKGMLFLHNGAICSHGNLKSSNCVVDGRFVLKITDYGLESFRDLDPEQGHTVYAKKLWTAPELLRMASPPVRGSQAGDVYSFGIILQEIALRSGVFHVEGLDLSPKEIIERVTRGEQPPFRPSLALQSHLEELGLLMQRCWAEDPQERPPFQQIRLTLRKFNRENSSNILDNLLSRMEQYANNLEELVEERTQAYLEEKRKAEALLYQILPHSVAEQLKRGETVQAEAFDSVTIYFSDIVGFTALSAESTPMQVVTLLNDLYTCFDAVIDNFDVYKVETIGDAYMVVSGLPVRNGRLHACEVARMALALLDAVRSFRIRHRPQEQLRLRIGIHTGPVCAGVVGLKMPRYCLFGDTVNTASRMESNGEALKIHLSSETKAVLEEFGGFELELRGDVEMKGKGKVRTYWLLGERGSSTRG
In words: cGMP elevating activity in CHO/human GC-A cells (Test Example 1). Type of experiment: cell-based. As to the method:
The cGMP elevating activity of each modified peptide prepared in Example 2 was measured by the following method:
CHO/human GC-A cells, which are CHO cells constitutively expressing human GC-A, were suspended at 2×10^5 cells/ml in α-MEM, 10% FBS, and 1% penicillin-streptomycin, inoculated at 20 μl/well (4×10^3 cells/well) onto a 384-well plate (Corning, 3826), and cultured overnight in a CO2 incubator. On the next day, the medium was removed from this plate, and then, 1.6 mM IBMX/KRB buffer was added thereto at 10 μl/well. The mixture was stirred on a plate shaker and then incubated at room temperature for 10 minutes. […] The mixture was stirred on a plate shaker and then incubated for 15 minutes in a CO2 incubator. Thereafter, a lysis buffer (50 mM phosphate buffer, pH 7.0, and 1% Triton X-100) was added thereto at 5 μl/well. The cells were lysed by stirring for 10 minutes on a plate shaker. Subsequently, the cGMP levels in the cell lysates were measured by use of a cGMP kit (manufactured by Cisbio Bioassays). Specifically, to a 384-well plate (Greiner, 784076), 5 μl/well of a diluent attached to the kit, 5 μl/well of the cell lysate, 5 μl/well of cGMP-d2, and 5 μl/well of anti cGMP-Cryptate were added. The mixture was stirred on a plate shaker and then incubated overnight at 4° C. in the dark, followed by the measurement of homogeneous time-resolved fluorescence using RubyStar (manufactured by BMG LABTECH JAPAN Ltd.). The activity value (T/C) of the test substance at each concentration was calculated when the activity value of a well supplemented with only a solvent was defined as 0 and the activity value of a well supplemented with 1 nM ANP was defined as 1.
For orientation: EC50 means the concentration needed to bring the measured effect to its halfway point. Low readings indicate an effect from little substance, high ones a need for much substance. The compound `CC[C@H](C)[C@@H]1NC(=O)[C@H](CCCNC(=N)N)NC(=O)[C@H](CC(=O)O)NC(=O)[C@H](CCSC)NC(=O)[C@H](CCCNC(=N)N)NC(=O)CNC(=O)CNC(=O)[C@H](Cc2ccccc2)NC(=O)[C@@H](NC(=O)[C@H](CO)NC(=O)[C@H](CO)NC(=O)[C@H](CCCNC(=N)N)NC(=O)[C@H](CCCNC(=N)N)NC(=O)[C@H](CC(C)C)NC(=O)[C@H](CO)NC(=O)CCOCCOCCOCCOCCNC(=O)[C@H](CCCCNC(=O)CO[C@@H]2O[C@H](CO)[C@@H](O[C@@H]3O[C@H](CO)[C@@H](O[C@@H]4O[C@H](CO[C@H]5O[C@H](CO)[C@@H](O)[C@H](O)[C@@H]5O[C@@H]5O[C@H](CO)[C@@H](O[C@@H]6O[C@H](CO[C@]7(C(=O)O)C[C@H](O)[C@@H](NC(C)=O)[C@H]([C@H](O)[C@H](O)CO)O7)[C@H](O)[C@H](O)[C@H]6O)[C@H](O)[C@H]5NC(C)=O)[C@@H](O)[C@H](O[C@H]5O[C@H](CO)[C@@H](O)[C@H](O)[C@@H]5O[C@@H]5O[C@H](CO)[C@@H](O[C@@H]6O[C@H](CO[C@]7(C(=O)O)C[C@H](O)[C@@H](NC(C)=O)[C@H]([C@H](O)[C@H](O)CO)O7)[C@H](O)[C@H](O)[C@H]6O)[C@H](O)[C@H]5NC(C)=O)[C@@H]4O)[C@H](O)[C@H]3NC(C)=O)[C@H](O)[C@H]2NC(C)=O)NC(=O)CO[C@@H]2O[C@H](CO)[C@@H](O[C@@H]3O[C@H](CO)[C@@H](O[C@@H]4O[C@H](CO[C@H]5O[C@H](CO)[C@@H](O)[C@H](O)[C@@H]5O[C@@H]5O[C@H](CO)[C@@H](O[C@@H]6O[C@H](CO[C@]7(C(=O)O)C[C@H](O)[C@@H](NC(C)=O)[C@H]([C@H](O)[C@H](O)CO)O7)[C@H](O)[C@H](O)[C@H]6O)[C@H](O)[C@H]5NC(C)=O)[C@@H](O)[C@H](O[C@H]5O[C@H](CO)[C@@H](O)[C@H](O)[C@@H]5O[C@@H]5O[C@H](CO)[C@@H](O[C@@H]6O[C@H](CO[C@]7(C(=O)O)C[C@H](O)[C@@H](NC(C)=O)[C@H]([C@H](O)[C@H](O)CO)O7)[C@H](O)[C@H](O)[C@H]6O)[C@H](O)[C@H]5NC(C)=O)[C@@H]4O)[C@H](O)[C@H]3NC(C)=O)[C@H](O)[C@H]2NC(C)=O)CSSC[C@@H](C(=O)N[C@@H](CC(N)=O)C(=O)N[C@@H](CO)C(=O)N[C@@H](Cc2ccccc2)C(=O)N[C@@H](CCCNC(=N)N)C(=O)N[C@@H](Cc2ccc(O)cc2)C(=O)O)NC(=O)CNC(=O)[C@H](CC(C)C)NC(=O)CNC(=O)[C@H](CO)NC(=O)[C@H](CCC(N)=O)NC(=O)[C@H](C)NC(=O)CNC1=O` [Compound 2-35, SG-(SG-)Lys-PEG(3)-hANP(1-28)] displayed a concentration giving a half-maximal response (EC50) of 0.31 nM. To `CC[C@H](C)[C@@H]1NC(=O)[C@H](CCCNC(=N)N)NC(=O)[C@H](CC(=O)O)NC(=O)[C@H](CCSC)NC(=O)[C@H](CCCNC(=N)N)NC(=O)CNC(=O)CNC(=O)[C@H](Cc2ccccc2)NC(=O)[C@@H](NC(=O)[C@H](CO)NC(=O)[C@H](CO)NC(=O)[C@H](CCCNC(=N)N)NC(=O)[C@H](CCCNC(=N)N)NC(=O)[C@H](CC(C)C)NC(=O)[C@@H](N)CC(=O)N[C@@H]2O[C@H](CO)[C@@H](O[C@@H]3O[C@H](CO)[C@@H](O[C@@H]4O[C@H](CO[C@H]5O[C@H](CO)[C@@H](O)[C@H](O)[C@@H]5O[C@@H]5O[C@H](CO)[C@@H](O[C@@H]6O[C@H](CO[C@]7(C(=O)O)C[C@H](O)[C@@H](NC(C)=O)[C@H]([C@H](O)[C@H](O)CO)O7)[C@H](O)[C@H](O)[C@H]6O)[C@H](O)[C@H]5NC(C)=O)[C@@H](O)[C@H](O[C@H]5O[C@H](CO)[C@@H](O)[C@H](O)[C@@H]5O[C@@H]5O[C@H](CO)[C@@H](O[C@@H]6O[C@H](CO[C@]7(C(=O)O)C[C@H](O)[C@@H](NC(C)=O)[C@H]([C@H](O)[C@H](O)CO)O7)[C@H](O)[C@H](O)[C@H]6O)[C@H](O)[C@H]5NC(C)=O)[C@@H]4O)[C@H](O)[C@H]3NC(C)=O)[C@H](O)[C@H]2NC(C)=O)CSSC[C@@H](C(=O)N[C@@H](CC(N)=O)C(=O)N[C@@H](CO)C(=O)N[C@@H](Cc2ccccc2)C(=O)N[C@@H](CCCNC(=N)N)C(=O)N[C@@H](Cc2ccc(O)cc2)C(=O)O)NC(=O)CNC(=O)[C@H](CC(C)C)NC(=O)CNC(=O)[C@H](CO)NC(=O)[C@H](CCC(N)=O)NC(=O)[C@H](C)NC(=O)CNC1=O` [Compound 2-4, (SG-)Asn-hANP(2-28)] belongs 0.08 nM; to `CC[C@H](C)[C@@H]1NC(=O)[C@H](CCCNC(=N)N)NC(=O)[C@H](CC(=O)O)NC(=O)[C@H](CCSC)NC(=O)[C@H](CCCNC(=N)N)NC(=O)CNC(=O)CNC(=O)[C@H](Cc2ccccc2)NC(=O)[C@@H](NC(=O)[C@H](CO)NC(=O)[C@H](CO)NC(=O)[C@H](CCCNC(=N)N)NC(=O)[C@H](CCCNC(=N)N)NC(=O)[C@H](CC(C)C)NC(=O)[C@H](CO)NC(=O)CNC(=O)CO[C@@H]2O[C@H](CO)[C@@H](O[C@@H]3O[C@H](CO)[C@@H](O[C@@H]4O[C@H](CO[C@H]5O[C@H](CO)[C@@H](O)[C@H](O)[C@@H]5O[C@@H]5O[C@H](CO)[C@@H](O[C@@H]6O[C@H](CO[C@]7(C(=O)O)C[C@H](O)[C@@H](NC(C)=O)[C@H]([C@H](O)[C@H](O)CO)O7)[C@H](O)[C@H](O)[C@H]6O)[C@H](O)[C@H]5NC(C)=O)[C@@H](O)[C@H](O[C@H]5O[C@H](CO)[C@@H](O)[C@H](O)[C@@H]5O[C@@H]5O[C@H](CO)[C@@H](O[C@@H]6O[C@H](CO[C@]7(C(=O)O)C[C@H](O)[C@@H](NC(C)=O)[C@H]([C@H](O)[C@H](O)CO)O7)[C@H](O)[C@H](O)[C@H]6O)[C@H](O)[C@H]5NC(C)=O)[C@@H]4O)[C@H](O)[C@H]3NC(C)=O)[C@H](O)[C@H]2O)CSSC[C@@H](C(=O)N[C@@H](CC(N)=O)C(=O)N[C@@H](CO)C(=O)N[C@@H](Cc2ccccc2)C(=O)N[C@@H](CCCNC(=N)N)C(=O)N[C@@H](Cc2ccc(O)cc2)C(=O)O)NC(=O)CNC(=O)[C@H](CC(C)C)NC(=O)CNC(=O)[C@H](CO)NC(=O)[C@H](CCC(N)=O)NC(=O)[C@H](C)NC(=O)CNC1=O` [Compound 2-40, SG(Glc)-Gly-A-hANP(1-28)], 0.05 nM.
